Results taken from US11427553B2, “Dihydrooxadiazinones” (Bayer Aktiengesellschaft, priority 2017, dated 2022).
One block for each molecule: values may come before it.

Legend:
[1] = test system: NCI-H1734 cells; test: Assay 1 cell proliferation measurement, NCI-H1734; assay type: cell-based; details: Homo sapiens, Lung, read-out: Anti-proliferation IC50 [nM] NCI-H1734
[2] = test system: IGR-1 cells; test: Assay 1 cell proliferation measurement, IGR-1; assay type: cell-based; details: Homo sapiens, Melanoma, read-out: Anti-proliferation IC50 [nM] IGR-1
[3] = test system: H4 cells; test: Assay 1 cell proliferation measurement, H4; assay type: cell-based; details: Homo sapiens; Astrocytoma; read-out: Anti-proliferation IC50 [nM] H4
[4] = test system: DBTRG-05-MG cells; test: Assay 1 cell proliferation measurement, DBTRG-05-MG; assay type: cell-based; details: Homo sapiens, Glioblastoma, read-out: Anti-proliferation IC50 [nM] DBTRG-05-MG
[5] = test system: C32 cells; test: Assay 1 cell proliferation measurement, C32; assay type: cell-based; details: Homo sapiens, Melanoma, read-out: Anti-proliferation IC50 [nM] C32
[6] = test system: xenograft models of human tumors; test: Assay 3 in vivo xenotransplantation models of human cancer (overall statement); details: monotherapy treatment, p.o., mice
Description: (§1) In Vivo Xenotransplantation Models
(§2) The anti-tumor activities of Compounds of examples 135 and 146 were examined in murine xenotransplantation models of human cancer. For this purpose, mice were implanted subcutaneously with tumor cells. At a mean tumor size of 20-40 mm^2 animals were randomized into treatment and control groups (at least n=10 animals/group) and treatment started with vehicle only or respective Compound (formulation: 90% PEG400/10% Ethanol; application route: per os (“p.o.”), orally). The oral application volume was 10 ml/kg. In the case of twice daily treatments, the time interval between two applications per day was 6-7 h. The tumor size and the body weight were determined at least weekly. The tumor area was detected by means of an electronic caliper [length (mm)×width (mm)]. The experiment was ended when the study reached the pre-determined ethical endpoint based on German and European animal welfare regulations. In vivo anti-tumor efficacy is presented as T/C ratio at study end (Treatment/Control; mean tumor weight of treatment group/mean tumor weight of control group) in Table 8. A compound having a T/C below 0.5 is defined as active (i.e., effective). Statistical analysis was assessed using SigmaStat software. A one-way analysis of variance was performed and differences to the control were compared by a pair-wise comparison procedure (Dunn's method).

[7] = test system: PA-1 xenograft (Ovarian teratocarcinoma); test: Assay 3 in vivo xenotransplantation model, PA-1; details: PA-1 ovarian teratocarcinoma xenograft, mice
Description: as §1, §2

[8] = test system: NCIH1563 cells; test: Assay 2 cell proliferation measurement, NCIH1563; assay type: cell-based; details: Homo sapiens, NCI-H1563, Lung adenocarcinoma, read-out: Anti-proliferation IC50 [nM] NCIH1563
Procedure: (§3) Cell Proliferation Measurement
(§4) The antiproliferative activity of the compounds of the general formula (I) was examined in vitro in human cancer cells. For this purpose, 500 cells, including HeLa cells, A2058 cells, DU145 cells, HMCB cells, IGR37 cells, NCIH1734 cells, OSRC2 cells, or 750 cells, including CAL51 cells, COL0741 cells, DBTRG05MG cells, DKMG cells, G292CLONEA141B1 cells, GB1 cells, HEL cells, HEL9217 cells, JHUEM1 cells, L3.3 cells, LI7 cells, TE4 cells, or 1000 cells, including 8505C cells, HUT78 cells, NCIH1563 cells, NCIH2122 cells, NCIH2172 cells, RVH421 cells, SKMEL3 cells, or 1500 cells, including C32 cells, HS578T cells, JHOM1 cells, NCIH196 cells, OVKATE cells, were plated in 384-well plates with appropriate growth medium and incubated at 37° C. overnight. […] After 72 h, the cells were treated with 20 μl/well of 50% CTG solution in PBS (Promega Cell Titer Glo (catalogue #G755B and G756B)) and incubated at room temperature for 10 min, and luminescence was measured by means of a VICTOR V (Perkin Elmer), in order to determine cell viability at the end of treatment. The percentage effect on cell growth and the IC50 derived therefrom were determined for each test substance using the values from untreated wells (=percent viability). The IC50 values were calculated using a 4-parameter fit.

[9] = test system: COLO741 cells; test: Assay 1 cell proliferation measurement, COLO741; assay type: cell-based; details: Homo sapiens, COLO-741; Melanoma; read-out: Anti-proliferation IC50 [nM] COLO741
[10] = test system: HeLa xenograft (Cervical cancer); test: Assay 3 in vivo xenotransplantation model, HeLa; details: mice, 5 mg/kg 2QD p.o., * P < 0.05 vs control
Description: as §1, §2

[11] = test system: A2058 xenograft (Melanoma); test: Assay 3 in vivo xenotransplantation model, A2058; details: mice, 10 mg/kg 2QD p.o., * P < 0.05 vs control
Description: as §1, §2

[12] = test system: JHOM1 cells; test: Assay 2 cell proliferation measurement, JHOM1; assay type: cell-based; details: Homo sapiens, Ovary adenocarcinoma, read-out: Anti-proliferation IC50 [nM] JHOM1
Procedure: as §3, §4

[13] = test system: CAL51 cells; test: Assay 2 cell proliferation measurement, CAL51; assay type: cell-based; details: Homo sapiens, CAL-51, Breast NS, read-out: Anti-proliferation IC50 [nM] CAL51
Procedure: as §3, §4

[14] = test system: DU145 cells; test: Assay 2 cell proliferation measurement, DU145; assay type: cell-based; details: Homo sapiens, DU-145, Prostate NS, read-out: Anti-proliferation IC50 [nM] DU145
Procedure: as §3, §4

[15] = test system: HEL92.1.7 xenograft (AML); test: Assay 3 in vivo xenotransplantation model, HEL92.1.7; details: HEL92.1.7 AML xenograft, mice, 40 mg/kg 2QD p.o.; * P < 0.05 vs control
Description: as §1, §2

[16] = test system: NCIH2122 cells; test: Assay 2 cell proliferation measurement, NCIH2122; assay type: cell-based; details: Homo sapiens, NCI-H2122, Lung adenocarcinoma, read-out: Anti-proliferation IC50 [nM] NCIH2122
Procedure: as §3, §4

IC50 [1]: 13 nM
SMILES: O=C1NN=C(c2ccc(-c3ccc(F)cc3)c(C(F)(F)F)c2)CO1 [Example 3, 5-[4′-Fluoro-2-(trifluoromethyl)biphenyl-4-yl]-3,6-dihydro-2H-1,3,4-oxadiazin-2-one]
IC50 [2]: 99 nM
IC50 [3]: 25 nM

SMILES: O=C1NN=C(c2ccc(-c3ccc(Cl)cc3)c(C(F)(F)F)c2)CO1 [Example 31, 5-[4′-Chloro-2-(trifluoromethyl)biphenyl-4-yl]-3,6-dihydro-2H-1,3,4-oxadiazin-2-one]
IC50 [4]: 56 nM

IC50 [9]: 1 nM
SMILES: C[C@@H]1OC(=O)NN=C1c1ccc(-c2ccc(F)cc2)c(C(F)(F)F)c1 [Example 135, (6S)-5-[4′-Fluoro-2-(trifluoromethyl)biphenyl-4-yl]-6-methyl-3,6-dihydro-2H-1,3,4-oxadiazin-2-one]
IC50 [5]: 15 nM
anti-tumor efficacy in xenograft models of human tumors [6]: potent anti-tumor efficacy
T/C (mean final tumor weight treatment / control) ([7]; 5 mg/kg 2QD p.o.): 0.63
IC50 [2]: > 100 nM
IC50 [8]: 18 nM

IC50 [14]: 14 nM
SMILES: O=C1NN=C(c2ccc(-c3cnn(C(F)F)c3)c(C(F)(F)F)c2)CO1 [Example 146, 5-{4-[1-(Difluoromethyl)-1H-pyrazol-4-yl]-3-(trifluoromethyl)phenyl}-3,6-dihydro-2H-1,3,4-oxadiazin-2-one]
T/C (mean final tumor weight treatment / control) [10]: 0.08*
T/C (mean final tumor weight treatment / control) [11]: 0.23*
anti-tumor efficacy in xenograft models of human tumors [6]: potent anti-tumor efficacy
IC50 [12]: 8 nM
T/C (mean final tumor weight treatment / control) ([7]; 20 mg/kg 2QD p.o., * P < 0.05 vs control): 0.49*
IC50 [13]: 37 nM
T/C (mean final tumor weight treatment / control) [15]: 0.08*
IC50 [16]: 3 nM
IC50 [4]: 14 nM

SMILES: C[C@@H]1OC(=O)NN=C1c1ccc(-n2ccc(C(F)(F)F)n2)c(C(F)(F)F)c1 [Example 265, (6S)-6-Methyl-5-{3-(trifluoromethyl)-4-[3-(trifluoromethyl)-1H-pyrazol-1-yl]phenyl}-3,6-dihydro-2H-1,3,4-oxadiazin-2-one]
IC50 [8]: 46 nM
